Where a name gives a salt, the structure may show the parent alone. Read-outs that look alike come from different tables or passages of the source.
How the values were obtained:
[1] = biological target: hERG potassium channel (Homo sapiens, UniProt Q12809); assay: hERG potassium channel whole-cell patch clamp (HEK293); format: cell-based; design: expressed in transfected cells; host or cells: HEK293 cell line; settings: for IC50: HEK293 cells stably expressing hERG, whole-cell patch clamp, room temperature, read-out: Half-inhibition concentration of compounds to be tested on hERG (IC50)
Description: The rapidly activated potassium channel encoded by human ether-a-go-go-related gene (hERG) is an important ion channel involved in the formation of phase 3 repolarization of myocardial action potential. […] Drug-induced delayed ventricular repolarization may cause fatal arrhythmia-torsade de pointes in some cases. According to statistics, about 25-40% of the lead compounds show different degrees of hERG-related toxicity, and many drugs are withdrawn from the market because they may lead to the risk of QT interval extension. At present, National Medical Products Administration also requires hERG/IKr safety evaluation data before clinical trial application (IND) of new drugs under study. • 1. Whole-cell patch clamp technique is used to study the inhibitory effect of compounds on hERG potassium channels: • 1) the compound to be tested is stored with physiological saline prepared into 10 mM liquid. The test stock solution is diluted with physiological saline into 3 mM, 1 mM and 0.3 mM diluents in turn. […] The old culture medium removed and is washed once with PBS, then added with 1 mL TrypLE™ Express solution and incubated at 37° C. for about 0.5 minutes. When the cells are detached from the bottom of the dish, about 5 ml complete medium preheated is added at 37° C. The cell suspension is gently blown with a straw to separate the aggregated cells. The cell suspension is transferred to a sterile centrifuge tube and centrifuged at 1000 rpm for 5 minutes to collect cells. […] The clamping voltage is depolarized from −80 mV to −50 mV for 0.5 seconds (as leakage current detection), then stepped to 30 mV for 2.5 seconds, and then quickly recovered to −50 mV for 4 seconds, which can excite the tail current of hERG channel. Data are collected repeatedly every 10s to observe the effect of drugs on hERG tail current. 0.5 seconds-50 mV stimulation is used as leakage current detection. The test data are collected by IPA amplifier (Sutter Instrument) and stored in SutterPatch software.
Capillary glass tube is drawn into recording electrode by microelectrode drawing instrument. Under the inverted microscope, the microelectrode manipulator is operated to contact the recording electrode with the cell, and negative pressure suction is given to form a GΩ seal. After the GΩ seal is formed, rapid capacitance compensation is carried out, and then negative pressure is continuously applied to break the cell membrane, forming a whole cell recording mode. Then the slow capacitance is compensated and the film capacitance and series resistance are recorded. No leakage compensation is given.
When the hERG current recorded in the whole cell is stable, the drug is administered, and the next concentration is detected after each drug concentration acts for 5 minutes (or the current is stable), and multiple concentrations are detected for each test compound. The cover glass covered with cells is placed in the recording bath in an inverted microscope, and the test compound and the external liquid containing no compound flowed through the recording bath from low concentration to high concentration by gravity perfusion method, so as to act on the cells, and liquid exchange is carried out by using a vacuum pump during recording. The current detected by each cell in the external fluid without compounds is used as its own control group.
At least two cells are used to detect each concentration independently and repeatedly twice. All electrophysiological tests are conducted at room temperature.
Firstly, the current after each drug concentration and the blank control current are standardized
[formula] followed by the calculation of the inhibition rate
[formula] corresponding to each drug concentration, the average and standard deviation for each concentration, and the semi-inhibition concentration of each compound with the following equation: […]
The dose-dependent effect is nonlinear fitted by the above equation, and IC50 is semi-inhibitory concentration.

[2] = biological target: T1, κOR (Homo sapiens, UniProt P41145); assay: Opioid receptor competitive binding test, κOR; settings: [3H]-labeled ligand, CHO cell membranes, ± SD of three measurements; for κOR binding rate: compound at 10 μM
T1 construct: expressed in transfected cells; host or cells: CHO cells
Protocol: (§1) CHO cells expressing p opioid receptor, δ opioid receptor and K opioid receptor are cultured in a 10 cm^2 Petri dish (F-12 medium+10% newborn bovine serum) for several days, and the culture solution is sucked after the cells grew to the bottom of the dish. 3 ml PBS/EDTA solution (0.1M NaCl, 0.01M NaH2PO4, 0.04% EDTA) is added for digestion for 3-5 minutes. The cells are blown with a straw to get fall off completely, collected in a 40 ml centrifuge tube, centrifuged at 5000 rpm for 5 minutes, and removed with the supernatant. The centrifuge tube is added with ice-cold homogenate (50 mM HEPES PH 7.4, 3 mM MgCl2, 1 mM EGTA). The solution and precipitate are transferred to homogenizer for homogenization; Then the homogenate is transferred into a centrifuge tube, centrifuged at 18000 rpm for 15 minutes, and centrifuged twice; the obtained precipitate is added with an appropriate amount of buffer solution of 50 mM Tris-HCl and pH 7.4, homogenized and sub-packaged in centrifuge tubes. The product is stored in a refrigerator at −70° C. for later use.
(§2) 20-30 μg expressed membrane receptor protein and [3H]-labeled ligand (1-2 nM) are added to the total binding tube, added with 1 μM of corresponding ligand to the corresponding nonspecific binding tube. Various screened opioid ligand drugs (see the drug compounds in Table 1 below) are added to the sample tube with 100 μL final volume. The sample is incubated at 30° C. for 30 minutes, and the reaction is terminated in ice water. The glass fiber filter paper gF/C (whatman) is used for negative pressure filtration on Millipore sample collector. The sample is eluted with 4 ml 50 mm tris-HCl (pH 7.4) for three times, dried with the filter paper, put in 0.5 ml Eppendorf tube and added with 0.5 ml lipophilic scintillation liquid. The radioactive intensity is measured with PERKIN ELMER PRI-CARB 2910 liquid scintillation counter with calculation of the inhibition rate. The experiment is repeated for more than three times, with three compound tubes in each group. Inhibition rate(or binding rate)=(total binding rate dpm−sample tube dpm)/(total binding tube dpm-nonspecific binding tube dpm)×100%
(§3) IC50 is calculated with Prism 5.0 software. The Ki value is calculated according to the following formula: Ki=IC50/(1^+[L]/Kd), wherein [L] is the concentration of the added labeled ligand, and Kd is the equilibrium dissociation parameter of the labeled ligand.

[3] = biological target: T2, δOR (Homo sapiens, UniProt P41143); assay: Opioid receptor competitive binding test, δOR; settings: [3H]-labeled ligand, CHO cell membranes, ± SD of three measurements; for δOR binding rate: compound at 10 μM
T2 construct: expressed in transfected cells; host or cells: CHO cells
Protocol: as §1, §2, §3

[4] = system: Female Kunming mice; assay: Hot plate analgesia test in mice; format: in vivo; settings: 55° C. hot plate
Protocol: Female Kunming mice weighing about 20 g are placed on a hot plate instrument preheated to 55° C., and the latency of licking hind feet or lifting hind feet is used as the pain threshold index. Animals are screened before the experiment, and animals with latency less than 5 s or more than 30 s are excluded. To prevent foot burns, the longest observation time is set to 60s. The basic pain threshold is the average of two measurements, and the interval between the two measurements is 5 minutes. The pain threshold of mice in each group is determined at 15 minutes, 30 minutes, 60 minutes and 120 minutes after intraperitoneal administration. The effective percentage of analgesia (% MPE) is calculated according to the following formula
[formula] According to the effective percentage of analgesia, the ED50 value is calculated by graphpad prism 5.0 software.

[5] = biological target: T3, μOR (Homo sapiens, UniProt P35372); assay: Opioid receptor competitive binding test, μOR; settings: [3H]-labeled ligand, CHO cell membranes, ± SD of three measurements; for μOR binding rate: compound at 10 μM
T3 construct: expressed in transfected cells; host or cells: CHO cells
Protocol: as §1, §2, §3

[6] = system: ICR mice; assay: Evaluation of side effects of constipation (defecation time, number, weight); format: in vivo; settings: 7.5 mg/kg
Protocol: Constipation side effect is a common side effect of opioid drugs. This patent evaluates the possibility of constipation side effect by the influence of the compound on defecation time, defecation quantity and defecation weight of experimental animals.
ICR mice are randomly divided into 6 groups with 10 mice in each group after adaptive feeding. Fasting for 16-24 h, without stopping drinking, the blank control group is given solvent, during which the normal diet is: (1) the blank control group; (2) Compound diphenoxylate (7.5 mg/kg) group; (3) Low dose (1 mg/kg) group; (4) High dose (5 mg/kg) group of the compound to be tested.
After administration for 30 minutes, the mice in each group are given Chinese ink by gavage. After administration, the mice are kept in a single cage, and the excretion time of the first black stool is recorded. The number and weight (wet weight) of defecation particles in each mouse within 5 hours after administration are recorded. each group of mice are placed in an IVC cage with clean filter paper. The feces of each mouse are collected, put into a sterile 1.5 ml EP tube and stored in an ice box. During the collection, the number of defecation particles of each mouse is recorded, and the wet weight is weighed. After the collected feces are dried, the dry weight of the feces is recorded. Drying conditions: put fresh feces in an oven and bake at 100° C. for 5-10 minutes until the dry weight of feces is constant. The following formula is used to calculate the water content of feces, and the water content of feces (%)=(wet feces mass−dry feces mass)/wet feces mass×100%.
The data required for measurement and observation in this experiment are recorded in the corresponding table. All data are statistically processed by Microsoft Excel, and expressed as “mean standard error”. The data of each group are statistically analyzed by SPSS software package.

Compound	κOR binding rate [2]	δOR binding rate [3]	μOR binding rate [5]	Maximum analgesic effective percentage (% MPE), hot plate ([4]; 10 mg/kg, intraperitoneal)	also measured
1-(4-hydroxy-4-(3-methoxyphenyl)-3-(((methyl-d3)amino)methyl)-1-piperidinyl)-2(2,4,5-trifluorophenyl)ethyl-1-one [I-5hydrochloride]	19.1 ± 1.2%	12.5 ± 2.9%	22.6 ± 1.7%	–	hERG inhibition grade [1]: μM((Weak inhibition); IC50 [1]: 13500 nM; ED50, hot plate ([4]; intraperitoneal): 0.75 mg/kg
CCOC(=O)C1(c2ccccc2)CCN(CCC(C#N)(c2ccccc2)c2ccccc2)CC1 [Diphenoxylate, reference compound]	–	–	–	–	Number of defecating animals ([6]; 10 mice per group, within 5 hours): 10; Defecation time ([6]; first black stool, x ± SE, only animals that defecate within 5 hours): 148.4 ± 7.9 min; water content of feces ([6]; only animals that defecate within 5 hours, x ± SE): 41.4 ± 3.7%; Fecal weight ([6]; within 5 hours, x ± SE): 0.3005 ± 0.0289 g
CN(C)C[C@@H]1CN(S(=O)(=O)Cc2ccccc2)CC[C@@]1(O)c1cccc(O)c1.Cl [Example 22 of CN201911076305.X, (3R, 4S)-1-(benzylsulfonyl)-3-(dimethylamino)methyl)-4-(3-hydroxyphenyl)-4-piperidinol hydrochloride, reference compound]	–	–	–	–	Ki [2]: 33.7 ± 3.26 nM; Ki [3]: 1100 ± 42 nM; Ki [5]: 0.17 nM
CN(C)C[C@@H]1CN(S(=O)(=O)Cc2ccccc2)CC[C@@]1(O)c1cccc(O)c1.Cl [Example 22 of CN201911076305.X, reference compound]	–	–	–	–	hERG inhibition grade ([1]; listed as Example 22 of patent CN201911076305.X, hydrochloride): moderate inhibitory effects on hERG; hERG inhibition grade ([1]; listed as example 22 of the prior art of CN201911076305.X, hydrochloride): μM(Moderate intensity inhibition)
[2H]C([2H])([2H])Oc1cccc(C2(O)CCN(S(=O)(=O)Cc3ccccc3)CC2CN(C)C([2H])([2H])[2H])c1 (centres unmarked) [I-2hydrochloride]	23.8 ± 1.9%	10.9 ± 1.2%	24.75 ± 3.1%	100%	–
[2H]C([2H])([2H])Oc1cccc(C2(O)CCN(C(=O)Cc3cc(F)c(F)cc3F)CC2CN(C)C([2H])([2H])[2H])c1 (centres unmarked) [I-6hydrochloride]	20.5 ± 2.3%	11.6 ± 1.7%	21.0 ± 3.0%	100%	–
[2H]C([2H])([2H])Oc1cccc([C@]2(O)CCN(S(=O)(=O)Cc3ccccc3)C[C@H]2CN(C)C([2H])([2H])[2H])c1 [II-6hydrochloride]	14.5 ± 3.1%	10.5 ± 1.7%	28.4 ± 2.0%	–	ED50 ([4]; Mus musculus, ip, intraperitoneal): 0.79 mg/kg
[2H]C([2H])([2H])Oc1cccc([C@]2(O)CCN(C(=O)Cc3cc(F)c(F)cc3F)C[C@H]2CN(C)C([2H])([2H])[2H])c1 [II-12hydrochloride]	13.6 ± 1.9%	12.0 ± 3.3%	26.3 ± 1.2%	100%	–
COc1cccc(C2(O)CCCCC2CN(C)C)c1 (centres unmarked) [Tramadol, reference compound]	0%	0%	6.0 ± 0.4%	–	Maximum analgesic effective percentage (% MPE), hot plate ([4]; 50 mg/kg dosage): 64.5% ((50 mg/kg/dosage)
(3R,4S)-1-(benzylsulfonyl)-4-(3-hydroxyphenyl)-3-(((methyl(methyl-d3)amino)methyl)-4-piperidinol [II-2hydrochloride]	–	–	–	–	hERG inhibition grade [1]: μM((Weak inhibition); IC50 ([1]; listed as II-2): 25100 nM; IC50 ([1]; listed as Il-2hydrochloride): 14700 nM; Ki [2]: 25.6 ± 2.72 nM; Ki [3]: 482 ± 28.4 nM; Ki [5]: 0.12 nM

— patent publication US12509421B2, “Preparation and application of deuterated 4-phenyl-4-piperidinols” (priority 2022, dated 2025)
